The record followed here is US6833456B2, “Indolyl-urea derivatives of thienopyridines useful as antiangiogenic agents, and methods for their use” (Agouron Pharmaceuticals, Inc., priority 2002, dated 2004).

Data set [1] has as its system human umbilical vein endothelial cells (HUVEC). As to the kind of experiment: HUVEC+VEGF proliferation assay. It counts as cell-based. The following applies: Homo sapiens, HUVEC, 72 h, VEGF 6 ng/mL, MTT. The procedure, abridged:
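Proliferation driven by VEGF (final 6 ng/mL) was quantified by MTT reduction (A595) 72 h after stimulation. Passage 3-4 HUVEC were starved for 24 h in 1% FBS F12K and given test agent 1 h before VEGF, with DMSO at 0.1% final.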

Data set [2] addresses T1, unphosphorylated VEGF-R2Δ50 (FLVK) (Homo sapiens, UniProt P35968, DEL940-989/E990V).
T1 construct: VEGF-R2Δ50 contains residues 806-939 and 990-1171; made in house; host or cells: baculovirus/insect cell system
As to the kind of experiment: VEGF-R2 coupled spectrophotometric assay, unphosphorylated construct (FLVK). It counts as biochemical. The following applies: for inhibition at 0.05 µM: percent inhibition at 50 nM. The procedure, abridged: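 Continuous coupled assay (PEP, PK, LDH; NADH loss at 340 nm) in 200 mM HEPES pH 7.5 with 3 mM ATP, 20 mM poly(E4Y1), 60 mM MgCl2 plus 2 mM MnCl2, started with 5-40 nM non-autophosphorylated VEGF-R2Δ50. Ki values from activity across compound concentrations, Morrison fit.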

Data set [3] concerns the target T2, PDGFRβ (Homo sapiens, UniProt P09619).
T2 construct: expressed in transfected cells; host or cells: porcine aorta endothelial (PAE) cells
The data set is described as follows: PAE-PDGFRβ phosphorylation in PAE-PDGFRB cells assay. It is filed as cell-based. The conditions noted are these: PAE cells overexpressing human PDGFRβ, PDGF-BB stimulated; read-out: PAE PDGFR autophos IC50. The procedure, abridged: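 PAE cells overexpressing human PDGFRβ, serum-starved 16 h (0.1% FBS), compound 1 h at 37° C (0.5% DMSO), then 1 μg/mL PDGF-BB with 2 mM Na3VO4 for 8 min. Receptor captured by anti-PDGFRβ, phosphotyrosine detected by HRP-PY20/TMB at 450 nm; IC50 by four-parameter fit.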

In data set [4] the target is T3, KDR (VEGFR2) (Homo sapiens, UniProt P35968).
T3 construct: expressed in transfected cells; host or cells: porcine aorta endothelial (PAE) cells
T3 sequence (P35968 20-1356): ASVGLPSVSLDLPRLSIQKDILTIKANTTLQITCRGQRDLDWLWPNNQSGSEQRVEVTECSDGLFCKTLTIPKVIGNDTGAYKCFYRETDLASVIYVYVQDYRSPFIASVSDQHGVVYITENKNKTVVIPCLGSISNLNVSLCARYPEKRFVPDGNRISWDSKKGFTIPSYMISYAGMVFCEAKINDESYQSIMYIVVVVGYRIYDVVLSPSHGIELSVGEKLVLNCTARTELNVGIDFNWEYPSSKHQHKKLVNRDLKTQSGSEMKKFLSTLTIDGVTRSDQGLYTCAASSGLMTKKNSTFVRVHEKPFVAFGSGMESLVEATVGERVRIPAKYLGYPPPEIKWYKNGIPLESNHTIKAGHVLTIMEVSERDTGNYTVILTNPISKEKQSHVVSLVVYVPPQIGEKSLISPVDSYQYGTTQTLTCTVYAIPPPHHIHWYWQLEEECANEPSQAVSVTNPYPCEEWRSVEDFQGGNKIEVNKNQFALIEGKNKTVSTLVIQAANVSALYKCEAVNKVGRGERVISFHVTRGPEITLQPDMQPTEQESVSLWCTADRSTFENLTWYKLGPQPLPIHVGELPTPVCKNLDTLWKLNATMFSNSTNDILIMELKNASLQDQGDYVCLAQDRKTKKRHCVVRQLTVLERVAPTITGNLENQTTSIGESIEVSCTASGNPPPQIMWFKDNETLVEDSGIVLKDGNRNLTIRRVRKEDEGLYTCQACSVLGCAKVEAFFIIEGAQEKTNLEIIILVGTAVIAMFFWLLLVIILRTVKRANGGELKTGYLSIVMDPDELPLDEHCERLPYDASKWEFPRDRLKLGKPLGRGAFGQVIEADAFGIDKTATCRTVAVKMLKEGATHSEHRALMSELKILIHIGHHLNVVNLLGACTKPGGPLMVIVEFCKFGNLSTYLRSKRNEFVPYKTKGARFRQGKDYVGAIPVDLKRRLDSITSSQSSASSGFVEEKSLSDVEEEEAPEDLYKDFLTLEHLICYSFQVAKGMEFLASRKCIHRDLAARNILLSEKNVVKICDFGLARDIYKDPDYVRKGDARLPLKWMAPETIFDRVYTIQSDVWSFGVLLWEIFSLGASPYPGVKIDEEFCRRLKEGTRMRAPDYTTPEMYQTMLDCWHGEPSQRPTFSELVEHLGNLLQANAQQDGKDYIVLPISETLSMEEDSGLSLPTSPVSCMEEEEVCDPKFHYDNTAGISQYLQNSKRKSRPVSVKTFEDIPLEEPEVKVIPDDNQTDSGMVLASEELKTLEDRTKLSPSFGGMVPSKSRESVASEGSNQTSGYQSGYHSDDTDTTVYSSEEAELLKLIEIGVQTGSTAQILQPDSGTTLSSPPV
As to the kind of experiment: KDR (VEGFR2) phosphorylation in PAE-KDR cells assay. It is filed as cell-based. The following applies: PAE cells overexpressing human KDR, VEGF stimulated; read-out: PAE KDR autophos IC50. How it is done: This assay determines the ability of a test compound to inhibit the autophosphorylation of KDR in porcine aorta endothelial (PAE)-KDR cells. PAE cells that overexpress human KDR were used in this assay. The cells were cultured in Ham's F12 media supplemented with 10% fetal bovine serum (FBS) and 400 ug/mL G418. Thirty thousands cells were seeded into each well of a 96-well plate in 75 μL of growth media and allowed to attach for 6 hours at 37° C. Cells were then exposed to the starvation media (Ham's F12 media supplemented with 0.1% FBS) for 16 hours. After the starvation period was over, 10 μL of test agent in 5% DMSO in starvation media were added to the test wells and 10 μL of the vehicle (5% DMSO in starvation media) were added into the control wells. The final DMSO concentration in each well was 0.5%. Plates were incubated at 37° C. for 1 hour and the cells were then stimulated with 500 ng/ml VEGF (commercially available from R & D System) in the presence of 2 mM Na3VO4 for 8 minutes. The cells were washed once with 1 mm Na3VO4 in HBSS and lysed by adding 50 μL per well of lysis buffer. One hundred μL of dilution buffer were then added to each well and the diluted cell lysate was transferred to a 96-well goat ant-rabbit coated plate (commercially available from Pierce) which was pre-coated with Rabbit anti Human Anti-flk-1 C-20 antibody (commercially available from Santa Cruz). The plates were incubated at room temperature for 2 hours and washed seven times with 1% Tween 20 in PBS. HRP-PY20 (commercially available from Santa Cruz) was diluted and added to the plate for a 30-minute incubation. Plates were then washed again and TMB peroxidase substrate (commercially available from Kirkegaard & Perry) was added for a 10-minute incubation. One hundred μL of 0.09 N H2SO4 was added to each well of the 96-well plates to stop the reaction. Phosphorylation status was assessed by spectrophotometer reading at 450 nm. IC50 values were calculated by curve fitting using a four-parameter analysis.

The test system of data set [5] is HUVEC. The data set is described as follows: bFGF HUVEC proliferation. The following applies: Homo sapiens, HUVEC, bFGF stimulated HUVEC. It counts as cell-based, human.
Data set [6] in a line: Mouse PK assay. It is filed as in vivo, B6 female mice. The conditions noted are these: po. In outline: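 Plasma levels were measured by HPLC with UV detection after acetonitrile precipitation, using extracted standards, in blood taken up to 4 h (0.5, 1, 2, 4 h) post-dose. Dosing: 50 mg/kg orally or intraperitoneally to two groups of four female B6 mice, vehicle PEG 400:acidified H2O 30:70 suspension.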

Molecules are shown by their SMILES. Several values for one entry are separate records, joined by “and”; a condition that tells them apart may be missing. Equal entries are not always repeated. Bounds are passed on as bounds.

T2 sequence (P09619 33-1106): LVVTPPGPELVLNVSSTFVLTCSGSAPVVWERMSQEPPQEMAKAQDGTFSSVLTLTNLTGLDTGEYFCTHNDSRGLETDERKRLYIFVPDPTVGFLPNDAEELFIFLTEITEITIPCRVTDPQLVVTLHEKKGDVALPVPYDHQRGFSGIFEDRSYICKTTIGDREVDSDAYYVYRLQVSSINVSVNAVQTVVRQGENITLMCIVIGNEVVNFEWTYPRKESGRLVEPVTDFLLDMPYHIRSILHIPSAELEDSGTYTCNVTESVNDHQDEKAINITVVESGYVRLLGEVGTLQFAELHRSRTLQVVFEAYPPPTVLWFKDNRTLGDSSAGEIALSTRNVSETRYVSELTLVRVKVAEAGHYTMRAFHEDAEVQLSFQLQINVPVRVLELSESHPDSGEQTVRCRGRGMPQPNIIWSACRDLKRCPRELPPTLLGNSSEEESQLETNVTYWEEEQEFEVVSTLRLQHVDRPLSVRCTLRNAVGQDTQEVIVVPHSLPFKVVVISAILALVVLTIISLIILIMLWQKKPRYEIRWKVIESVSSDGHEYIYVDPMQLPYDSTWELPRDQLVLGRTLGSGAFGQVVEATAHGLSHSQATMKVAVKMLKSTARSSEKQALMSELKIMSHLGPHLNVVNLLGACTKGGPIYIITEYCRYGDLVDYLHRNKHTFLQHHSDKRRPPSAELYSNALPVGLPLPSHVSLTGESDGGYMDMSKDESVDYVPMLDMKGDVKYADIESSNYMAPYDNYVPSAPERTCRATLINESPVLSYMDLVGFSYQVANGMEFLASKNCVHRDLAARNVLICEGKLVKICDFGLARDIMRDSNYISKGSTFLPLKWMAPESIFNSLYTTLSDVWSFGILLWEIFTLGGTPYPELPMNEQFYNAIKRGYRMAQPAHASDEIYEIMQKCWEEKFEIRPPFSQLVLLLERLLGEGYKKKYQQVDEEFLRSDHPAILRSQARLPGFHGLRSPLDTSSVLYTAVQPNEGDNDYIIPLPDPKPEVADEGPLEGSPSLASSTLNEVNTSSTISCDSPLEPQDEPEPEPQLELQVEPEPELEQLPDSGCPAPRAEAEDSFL
T1 sequence (P35968 with tags, fused parts or gaps DEL940-989/E990V limits assumed): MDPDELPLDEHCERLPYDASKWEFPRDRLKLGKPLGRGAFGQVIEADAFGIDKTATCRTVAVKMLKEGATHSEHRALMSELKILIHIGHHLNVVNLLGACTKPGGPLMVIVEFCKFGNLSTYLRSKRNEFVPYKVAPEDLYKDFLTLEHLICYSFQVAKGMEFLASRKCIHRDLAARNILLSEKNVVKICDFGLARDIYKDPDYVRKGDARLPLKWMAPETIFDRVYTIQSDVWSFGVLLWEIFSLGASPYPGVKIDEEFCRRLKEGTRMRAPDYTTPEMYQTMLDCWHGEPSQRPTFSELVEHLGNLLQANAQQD

Usually IC50 stands for the concentration needed to halve the response being measured. By Ki is commonly meant a dissociation constant, usually derived from enzyme kinetics or from competition with a known ligand. Broadly, the inhibition is the share of the control response that was lost under treatment. A high value points to strong suppression. `C#CCNC(=O)n1c(C)cc2cc(Nc3ccnc4cc(C(=O)N5CCC[C@@H]5CO)sc34)ccc21` [Example 1e, 5-[2-(2R-Hydroxymethyl-pyrrolidine-1-carbonyl)-thieno[3,2-b]pyridin-7-ylamino]-2-methyl-indole-1-carboxylic acid prop-2-ynylamide]: the concentration for half-maximal inhibition (IC50) in data set [1] was 0.18 nM; in data set [3], 11.3 nM; in data set [4], 0.73 nM and 0.41 nM. In addition, the Ki in data set [2] was found to be 0.51 nM. Also, the inhibition at 0.05 µM in data set [2] was 97%.
The AUC is concentration integrated over time. On to `C#CCNC(=O)n1c(C)cc2cc(Nc3ccnc4cc(C(=O)N5CC[C@@H](OC)C5)sc34)ccc21` [Example 1p, 5-[2-(3R-Methoxy-pyrrolidine-1-carbonyl)-thieno[3,2-b]pyridin-7-ylamino]-2-methyl-indole-1-carboxylic acid prop-2-ynylamide], for which, in data set [2], affinity was put at a Ki of 0.2 nM and the inhibition at 0.05 µM amounted to 93%. Moreover, in data set [3], the IC50 stood at 56 nM. Also, the IC50 in data set [5] was 119 nM. Moreover, the area under the curve (AUC) in data set [6] (female, B6, mouse, plasma, 50 mg/kg) came out at 2530 ng·h/mL. Besides, the Cmax in data set [6] (female, B6, mouse, plasma, 50 mg/kg, p.o., 50 mg/kg, read-out: Mouse Cmax, po ng-h/mL) amounted to 1230 ng/mL. Also, the “Mouse Cmin, po” value in data set [6] is reported as 34 ng/mL.
On to `CO[C@H]1CN(C(=O)c2cc3nccc(Nc4ccc5c(c4)cc(C)n5C(=O)NC4CC4)c3s2)C[C@@H]1OC` [Example 1s, 5-[2-(3S,4S-Dimethoxy-pyrrolidine-1-carbonyl)-thieno[3,2-b]pyridin-7-ylamino]-2-methyl-indole-1-carboxylic acid cyclopropylamide], for which the IC50 is 0.308 nM in data set [1]; 165 nM and 98 nM in data set [3]; 0.42 nM and 0.7 nM in data set [4]. In addition, the Ki in data set [2] was determined as 1.1 nM. Besides, the inhibition at 0.05 µM in data set [2] turned out to be 98%.
Turning to `CNC(=O)n1c(C)cc2cc(Nc3ccnc4cc(C(=O)N5C[C@H](O)C[C@H]5C(C)(C)O)sc34)ccc21` [Example 3d, 5-{2-[(2S,4R)-4-Hydroxy-2-(1-hydroxy-1-methyl-ethyl)-pyrrolidine-1-carbonyl]-thieno[3,2-b]pyridin-7-ylamino}-2-methyl-indole-1-carboxylic acid methylamide], the IC50 in data set [1] was 61.6 nM; in data set [3], more than 1000 nM; in data set [4] it was 2.7 nM and 6.9 nM. In data set [2], this compound returned a Ki of 1.11 nM. The same compound displayed an inhibition at 0.05 µM in data set [2] of 60%.
On to `COC[C@@H]1C[C@@H](O)CN1C(=O)c1cc2nccc(Nc3ccc4c(c3)cc(C)n4C(=O)NC3CC3)c2s1` [Example 3h], for which, in data set [1], the IC50 was 1.94 nM. In data set [2], the Ki is 1.19 nM and the inhibition at 0.05 µM was determined as 95%. Also, half-maximal inhibition in data set [5] (IC50) was put at 225 nM.
With `Cc1cc2c(F)c(Oc3ccnc4cc(C(=O)N5CCC[C@H]5CO)sc34)ccc2n1C(=O)NC1CC1` [Example 5d, 4-Fluoro-5-[2-(2S-hydroxymethyl-pyrrolidine-1-carbonyl)-thieno[3,2-b]pyridin-7-yloxy]-2-methyl-indole-1-carboxylic acid cyclopropylamide], the IC50 in data set [1] is 0.35 nM; in data set [3] it was 21.5 nM; in data set [4] it was 0.53 nM and 0.44 nM and 0.275 nM. In data set [2], this compound yielded a Ki of 0.324 nM. The same compound had an inhibition at 0.05 µM in data set [2] of 96%.
On to `CNC(=O)n1c(C)cc2c(F)c(Oc3ccnc4cc(C(=O)N5CC[C@H](OC)C5)sc34)ccc21` [Example 5f, 4-Fluoro-5-[2-(3S-methoxy-pyrrolidine-1-carbonyl)-thieno[3,2-b]pyridin-7-yloxy]-2-methyl-indole-1-carboxylic acid methylamide], for which the IC50 in data set [1] was determined as 0.116 nM; in data set [3], 9.9 nM; in data set [4], 0.178 nM. In data set [2], this compound showed a Ki of 0.095 nM. In data set [2], the inhibition at 0.05 µM amounted to 100%.
The corresponding values for `CO[C@H]1CCN(C(=O)c2cc3nccc(Oc4ccc5c(cc(C)n5C(=O)NC5CC5)c4F)c3s2)C1` [Example 5h, 4-Fluoro-5-[2-(3S-methoxy-pyrrolidine-1-carbonyl)-thieno[3,2-b]pyridin-7-yloxy]-2-methyl-indole-1-carboxylic acid cyclopropylamide] are 0.28 nM, 9.9 nM, 0.29 nM, 0.52 nM and 98%.
Taken in the same sequence, the figures for `CNC(=O)n1c(C)c(Cl)c2c(F)c(Oc3ccnc4cc(C(=O)N5CC[C@H](OC)C5)sc34)ccc21` [Example 6b, 3-Chloro-4-fluoro-5-[2-(3S-methoxy-pyrrolidine-1-carbonyl)-thieno[3,2-b]pyridin-7-yloxy]-2-methyl-indole-1-carboxylic acid methylamide] were 1.46 nM, 21.2 nM, 0.952 nM, 0.647 nM and 99%.
The corresponding values for `CO[C@H]1CCN(C(=O)c2cc3nccc(Oc4ccc5c(c4F)c(Cl)c(C)n5C(=O)NC4CC4)c3s2)C1` [Example 6c, 3-Chloro-4-fluoro-5-[2-(3S-methoxy-pyrrolidine-1-carbonyl)-thieno[3,2-b]pyridin-7-yloxy]-2-methyl-indole-1-carboxylic acid cyclopropyl-amide] are 0.99 nM, 32 nM, 1.27 nM, 0.688 nM and 97%.
As for `CO[C@H]1CN(C(=O)c2cc3nccc(Oc4ccc5c(c4)cc(C)n5C(=O)NCCO)c3s2)CC1F` (stereo partly drawn) [Example 8k, 5-[(2-{[(4S)-3-Fluoro-4-methoxypyrrolidin-1-yl]carbonyl}thieno[3,2b]pyridin-7-yl)oxy]-N-(2-hydroxyethyl)-2-methyl-1H-indole-1-carboxamide], the half-maximal inhibitory concentration (IC50) in data set [1] is 0.32 nM. In data set [2], this compound returned a Ki of 0.868 nM and an inhibition at 0.05 µM of 95%. In data set [5], this compound displayed a half-maximal inhibitory concentration (IC50) of 18 nM.
On to `Cc1cc2cc(Oc3ccnc4cc(C(=O)N5CCC5)sc34)ccc2n1C(=O)NCCCO` [Example 8n, 5-[2-(Azetidine-1-carbonyl)-thieno[3,2-b]pyridin-7-yloxy]-2-methyl-indole-1-carboxylic acid (3-hydroxy-propyl)-amide], for which, in data set [2], the affinity, expressed as Ki, was 0.089 nM and the inhibition at 0.05 µM turned out to be 97%. Moreover, the IC50 in data set [3] was 10.2 nM. In data set [5], this compound showed an IC50 of 58 nM.
For the compound `CNC(=O)n1c(C)cc2cc(Oc3ccnc4cc(C(=O)N5CC(O)C5)sc34)ccc21` [Example 8o, 5-[2-(3-Hydroxy-azetidine-1-carbonyl)-thieno[3,2-b]pyridin-7-yloxy]-2-methyl-indole-1-carboxylic acid methylamide], the IC50 in data set [1] was 1.25 nM; in data set [5], 61 nM. In addition, the Ki in data set [2] is 4.47 nM. The same compound showed an inhibition at 0.05 µM in data set [2] of 74%.
Consider `CO[C@H]1CCN(C(=O)c2cc3nccc(Oc4ccc5c(c4)cc(C)n5C(=O)NCCCO)c3s2)C1` [Example 9b, 5-[2-(3S-Methoxy-pyrrolidine-1-carbonyl)-thieno[3,2-b]pyridin-7-yloxy]-2-methyl-indole-1-carboxylic acid (3-hydroxy-propyl)-amide], for which the results for the IC50 in data set [1], in data set [3] and in data set [4] were 0.33 nM, 60 nM and 0.67 nM, respectively. For the same compound, the affinity in data set [2] corresponds to a Ki of 0.488 nM. Moreover, the inhibition at 0.05 µM in data set [2] was 97%.
